# Reference: patent US6534073B2, “Skin care cosmetic compositions containing carboxymethylates of branched alcohols and/or ethoxylates thereof” (Unilever Home & Personal Care USA division of Conopco, Inc., priority 2000, dated 2003)
# Read-outs that look alike come from different tables or passages of the source. Marks after values point to notes of the source that are not given here.
# Key:
# human sebocytes = experiment: Inhibition of sebocyte lipogenesis (14C-acetate incorporation); type: cell-based; conditions: for inhibition of lipogenesis (result in words): summary of Tables 2 and 3
# Protocol: This example provided data on inhibition of sebocyte lipogenesis.
# Secondary cultures of human sebocytes obtained from an adult […] were grown in 48-well tissue culture plates (Costar Corp.; Cambridge, Mass.) or 96-well tissue culture plates (Packard Co.; Meriden, Conn.) until confluent. Sebocyte growth medium consisted of Clonetics Keratinocyte Basal Medium (KBM) 5 supplemented with 14 μg/ml bovine pituitary extract, 0.4 μg/ml hydrocortisone, 5 μg/ml insulin, 10 ng/ml epidermal growth factor, 1.2×10^−10 M cholera toxin, 100 units/ml penicillin, and 100 μg/ml streptomycin. All cultures were incubated at 37° C. in the presence of 7.5% CO2. Medium was changed three times per week.
# On the day of experimentation, the growth medium was removed and the sebocytes washed three times with sterile Dulbecco's Modified Eagle Medium (DMEM; phenol red free). Fresh DMEM was added to each sample (duplicates, triplicates, or quadruplicates depending on the experiment) with 5 μL of test agent solubilized in ethanol or sterile, distilled water either alone or in the presence of one or 10 μM of retinol. Controls consisted of addition of ethanol alone, retinol alone or phenol red, which has estrogen-like activity and was included as a positive control.
# Each plate was returned to the incubator for 20 hours followed by the addition of ^14C-acetate buffer (5 mM final concentration, 56 mCi/mmol specific activity). Sebocytes were returned to the incubator for four hours after which each culture was rinsed three times with phosphate buffered saline to remove unbound label. Radioactive label remaining in the sebocytes was harvested and counted using a Beckman scintillation counter.
# [1] = system: procollagen I production by neonatal human dermal fibroblasts; experiment: Procollagen I production by fibroblasts (slot blot, densitometry); type: cell-based; conditions: for Average OD Reading / Fold increase Over Control: Table 4; for Average OD Reading: procollagen I densitometer reading, control 0.783; for Fold increase Over Control / % Increase (+) or % decrease (−) over control: procollagen I; for % Increase (+) or % decrease (−) over control: positive control, concentration not given
# Protocol: This example measured production of procollagen I by fibroblasts in response to treatment with various straight chain and branched alcohols alone.
# Neonatal human dermal fibroblasts were purchased from Clonetics Corp., San Diego, Calif. All materials for cell culture were purchased from Life Technologies, N.Y. (and used in passages 5-10). Cells were seeded at a density of approximately 10,000/well in the inner 48 wells of a 96-well plate in a medium containing DMEM (Dulbecco's Modified Eagle's Medium), high-glucose supplemented with 2 mM L-glutamine, 10% fetal bovine serum, and antibiotic and antimycotic solutions. Cells were then grown to confluence for 2 days. At confluence, the medium was removed and cells were washed with serum-free DMEM, and each well dosed with 200 μl of a solution of a test compound in serum-free DMEM. Each dosing was replicated in a total of six wells. […] After 24 hours, the test compound solution or the control solution was removed and cells redosed with 100 μl of a solution of a test compound in serum-free DMEM.
# Nitrocellulose membrane and 3 sheets of filter paper were soaked in TRIS buffered saline (TBS, pH 7.3.). BioRad slot blot apparatus (BioRad Labs, CA) was set up with 3 sheets filter paper on bottom, membrane on top, and tightened. […] TBS was added per well. Vacuum was used to suck TBS through membrane. The test compound solution or control was vortexed, then 100 μl was loaded per well and gravity filtered. Procollagen from the test solution was bound to the membrane at this point in the procedure. Membrane was removed from the apparatus, excess cut off, and bottom right corner notched for orientation. The membrane was placed in blocking solution (5% milk powder in Dulbecco's phosphate buffered saline) overnight at 4° C., with shaking. The membrane was then incubated for 1.5 hrs at room temperature with 1.5 mL Rat Anti-Human Procollagen Amino-Terminal Ab (Chemicon MAB1912) in TBS with 0.1% BSA (Bovine Serum Albumin) (ratio of antibody to buffer/BSA was 1:100) in a sealed bag with shaking. The membrane was then removed; washed 3 times for 5 minutes in TBS/0.1% Tween. The membrane was then incubated for 1 hour at room temperature in 2 mL of Biotinylated Anti-Rat Peroxidase-Conjugated Ab (Vector Labs) in TBS with 0.1% BSA (ratio of antibody to buffer/BSA was 1:1000) in a sealed bag with shaking. The membrane was then stained using the following solution:
# 12.5 mg 3-amino 9-ethyl carbazole (Sigma)
# 3.125 (approximately) mL DMF (N,N-dimethylformamide, from Sigma)
# The membrane was stained until color developed and the reaction stopped with 2 washes for 10 minutes in tap water. The blot was scanned on a Bio-Rad GS700 Image Analysis densitometer. Percent change from control was calculated from densitometer readings as follows: [(Reading for test compound-Reading for control)/Reading for control]*100. Control has a reading of 100%. Statistical significance (p value) was calculated using student's t-test.
# TGF-B is a positive control, ensuring the integrity of the assay: transforming growth factor beta is known to increase procollagen I in fibroblasts.
# This example measured production of procollagen I by fibroblasts in response to treatment with various test compounds.
# The experiment was conducted as described in Example 1 above. Fold increase was calculated as a ratio of densitometer reading for cells treated with a test compound over control.
# [2] = Homo sapiens, Table 2, 14C-acetate label in sebocytes, read-out: % of Control
# [3] = Homo sapiens, Table 3, 14C-acetate label in sebocytes, read-out: % of Control
# [4] = Table 2, 14C-acetate label in sebocytes, 1 μM
# [5] = Table 2, 14C-acetate label in sebocytes, 10 μM
# [6] = Table 2, 14C-acetate label in sebocytes, 100 μM
compound,measurement,setting,value
"CC1=C(/C=C/C(C)=C/C=C/C(C)=C/CO)C(C)(C)CCC1 [Retinol, reference compound]",activity at 1 µM,"human sebocytes; Homo sapiens, Table 3, 14C-acetate label in sebocytes, 1 μM, read-out: % of Control",91.8%
same,activity at 10 µM,"human sebocytes; Homo sapiens, Table 3, 14C-acetate label in sebocytes, 10 μM, read-out: % of Control",106%
"O=S1(=O)OC(c2ccc(O)cc2)(c2ccc(O)cc2)c2ccccc21 [Phenol Red, reference compound]",activity at 28 µM,human sebocytes; [2],56.5%
same,activity at 280 µM,human sebocytes; [2],43.3%
same,activity at 28 µM,human sebocytes; [3],92%
same,activity at 280 µM,human sebocytes; [3],61.7%
Iso-tridecyl carboxymethylate (sodium salt),% of Control,human sebocytes; [4],81.5* %
same,% of Control,human sebocytes; [5],49.6* %
same,% of Control,human sebocytes; [6],1.2* %
same,% of Control,"human sebocytes; Table 3, 14C-acetate label in sebocytes, 1 μM",75.8* %
same,% of Control,"human sebocytes; Table 3, 14C-acetate label in sebocytes, 10 μM",66.0* %
same,inhibition of lipogenesis (result in words),human sebocytes,improved inhibition of lipogenesis
iso-tridecyl carboxymethylate,Average OD Reading,[1]; 0.0001%,0.777
same,Average OD Reading,[1]; 0.001%,1.295
same,Fold increase Over Control,[1]; 0.0001%,0.99 Fold
same,Fold increase Over Control,[1]; 0.001%,1.65* Fold
same,collagen synthesis by fibroblasts (result in words),[1]; summary of Tables 1 and 4,increased collagen production
same,% of Control,human sebocytes; [4],80.0* %
same,% of Control,human sebocytes; [5],58.2* %
same,% of Control,human sebocytes; [6],1.4* %
same,inhibition of lipogenesis (result in words),human sebocytes,enhanced inhibition of lipogenesis at all tested concentrations
"TGF-B: transforming growth factor beta, positive control known to increase procollagen I in fibroblasts [reference compound]",Average OD Reading,[1]; 0.001%,1.348
same,Fold increase Over Control,[1]; 0.001%,1.72* Fold
same,% Increase (+) or % decrease (−) over control,[1]; Table 1 Experiment 1,+50* %
same,% Increase (+) or % decrease (−) over control,[1]; Table 1 Experiment 2,+140* %
